Series [1] has as its system kidney disease model rats. Put plainly: Action to lower blood pressure in kidney disease model rats (tail cuff). It is filed as in vivo, Sprague-Dawley female rats. The note with it: systolic, average of 8 rats, 20 mg/kg with drinking water, two days after administration; control 210. On the procedure: (§1) The compounds of the present invention and the reference substance were administered with drinking water to kidney disease model rats, and the action of lowering the blood pressure was observed. The kidney disease model rats were prepared by a ligature of branches of renal artery in accordance with a conventional method. Namely, the left hilum renalis of Sprague-Dawley female rats was exposed under anesthesia, and one of four secondary branches of the renal artery was left unligated, while the remaining three branches were ligated, respectively. After a week, the hilum renalis (artery, vein, and ureter) of the right kidney were further ligated to thereby prepare rats whose renal function was lowered to approximately 1/8 of the normal function. Each group consisted of eight rats. The drugs to be tested (20 mg/kg) were administered to each administering group, and only water was administered to a control group. Two days after the administration, the systolic blood pressure was measured by the tail cuff method using a blood pressure measuring apparatus (UR5000; Ueda).

The nature of series [2]: Oral absorption (amount of compound in rat serum by HPLC, area under curve). Type of series: in vivo, Sprague-Dawley female rats. The note with it: single dosage 160 mg/kg in water, 0.5 to 24 hours, average of 3 rats. On the procedure: Twelve-week-old Sprague-Dawley female rats (3 rats per group) were bred for acclimation for a week. Then, the compounds of the present invention and a reference substrate were dissolved in water, and orally administered to the rats in a single dosage (160 mg/kg). After 0.5 hour, 1 hour, 2 hours, 4 hours, 6 hours, 8 hours, and 24 hours, the amounts of each compound (ng) per 1 ml of serum were measured using HPLC. Curves were obtained from the relation between an elapsed time after administration and the amount of the compound in serum at each elapsed time, respectively, and an average of the areas under the curves was calculated.
As a reference substance, Compound No. 184 disclosed in Japanese Unexamined Patent Publication (Kokai) No. 8-48651 was used. Compound No. 184 corresponds to the compound of the formula (I) wherein R^1 =nBu, A=N, Z=C, R^2 =CO, R^3 =NC4 H8 O, R^4 =H, R^5 =Me, and R^6 =Me.

A further series relates to ICR female mice. Kind of series: Acute toxicity, single oral dose in mice. The following applies: mouse, in vivo. On the procedure: The aromatic compounds of the formula (I) according to the present invention were orally administered to mice at the dose of 500 mg/kg, but no fatalities were observed over a period of one week.
Five-week-old ICR female mice (5 mice per group) were bred for acclimation for a week. Then, the compounds of the present invention were dissolved in water, and orally administered to the mice in a single dosage (500 mg/kg).

For series [3], the target named is T1, angiotensin II receptor subtype 2 (AT2) (Bos taurus, UniProt G5E6F7).
T1 construct: receptor : from cerebellar cortex in bovine; from tissue; host or cells: bovine cerebellar cortex
T1 sequence (G5E6F7 1-362): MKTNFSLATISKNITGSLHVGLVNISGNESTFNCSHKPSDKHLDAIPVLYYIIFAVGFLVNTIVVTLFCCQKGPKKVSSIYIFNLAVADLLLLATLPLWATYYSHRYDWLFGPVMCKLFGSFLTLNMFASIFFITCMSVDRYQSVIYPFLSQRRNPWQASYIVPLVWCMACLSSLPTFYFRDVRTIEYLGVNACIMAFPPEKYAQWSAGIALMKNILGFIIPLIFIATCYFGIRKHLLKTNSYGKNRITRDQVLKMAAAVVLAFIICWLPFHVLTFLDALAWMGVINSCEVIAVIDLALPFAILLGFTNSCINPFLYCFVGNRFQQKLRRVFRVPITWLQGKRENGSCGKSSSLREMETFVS
Kind of series: Binding to receptors: angiotensin II receptor subtype 2 (AT2). The following applies: bovine cerebellar cortex, tracer 125I-Tyr4-angiotensin II. On the procedure:
(§2) In this Example, the affinity to the angiotensin II receptor subtype 1 or subtype 2 was evaluated by a binding assay in accordance with the method described in Biochem. Pharmacol., 33, 4057-4062 (1984).
(§3) Specifically, the measurement of the total binding in the presence of each drug was performed as follows:
(§4) A mixture (final volume=0.25 ml) of a drug in a given concentration (the drug was dissolved in DMSO, and diluted to a double volume with a buffer attached to a drug discovery system to prepare a sample for the assay; 0.025 ml), a tracer (0.025 ml), and receptors (0.2 ml) was incubated [in the case of the angiotensin II receptor subtype 1 (AT1), at room temperature for 3 hours, and in the case of the subtype 2 (AT2), at 37° C. for 1 hour]. Then, the reaction mixture was filtered with suction (GF/C filter was used in AT1, and GF/B filter was used in AT2). The filter papers after filtration with suction (the tracer bound to the receptors) were counted by a γ-well counter (ARC-500, Aloka). The non-specific bindings were measured by repeating the above method, except that a large excess amount of a displacer was added. The specific binding of the drug in the given concentration was calculated by subtracting the non-specific binding from the total binding, respectively.
In AT1 and AT2, the percentages found to inhibit the bindings of radioactive ligands (tracer) to receptors by the drugs to be tested (IC50 value of concentration to show 50% inhibition, or binding inhibition % in 100 μM) were measured, using the drugs to be tested and control drugs in the given concentration.
receptor : from cerebellar cortex in bovine
tracer : ^125 ITyr^4angiotensin II
control drug : angiotensin II (human)
(displacer) : angiotensin II (human)

The target of series [4] is T2, angiotensin II receptor subtype 1 (AT1) (Oryctolagus cuniculus, UniProt P34976).
T2 construct: receptor : from adrenal glands in rabbits; from tissue; host or cells: rabbit adrenal glands
T2 sequence (P34976 1-359): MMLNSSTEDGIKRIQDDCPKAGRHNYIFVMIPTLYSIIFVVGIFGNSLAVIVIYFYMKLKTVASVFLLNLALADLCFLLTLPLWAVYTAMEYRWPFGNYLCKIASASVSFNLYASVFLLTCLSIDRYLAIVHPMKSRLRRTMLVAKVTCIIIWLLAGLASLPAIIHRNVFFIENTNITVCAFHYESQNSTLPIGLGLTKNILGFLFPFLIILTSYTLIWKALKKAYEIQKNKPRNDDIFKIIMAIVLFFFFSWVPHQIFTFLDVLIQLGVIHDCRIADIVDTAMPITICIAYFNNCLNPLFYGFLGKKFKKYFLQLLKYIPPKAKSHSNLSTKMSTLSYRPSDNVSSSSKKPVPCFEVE
Put plainly: Binding to receptors: angiotensin II receptor subtype 1 (AT1). Details: species or system rabbits (adrenal glands). The following applies: rabbit adrenal glands, tracer 3H-angiotensin II. On the procedure:
as §2, §3, §4
receptor : from adrenal glands in rabbits
tracer : ^3 Hangiotensin II

Series [5] has as its system kidney disease model rats. Kind of series: Survival time of kidney diseased animals. It is filed as in vivo, Sprague-Dawley female rats. The following applies: 20 mg/kg/day with drinking water, observation period eight weeks (upper limit); control 5.0. On the procedure:
as §1
The kidney disease model rats were prepared as in Example 54. Twenty-two groups (8 rats per group) were prepared in a manner such that there was no major difference between the groups in the serum creatinine value and the blood urea nitrogen value indicating renal function. The rats in each group were allowed to freely take up food. […] To the rats in the control group, only water was administered every day. If kidney diseases are aggravated, the rat will die of uremia. Thus, the survival time was observed as a comprehensive indication of the improvement of the effect on the kidney diseases. The observation period was eight weeks. Thus if all rats survived, the average survival time is eight weeks, and is an upper limit.

What is called AUC is the area under the concentration-time curve, a measure of exposure. Read a low AUC as less exposure. The term inhibition denotes the drop in the measured response relative to a control, in per cent. A higher inhibition goes with a response far below the control. For `CCCCC(=O)N(Cc1ccc(C(=O)OCCN2CCOCC2)cc1)c1cc(C(=O)N2CCOCC2)ccc1C(C)C` [Compound No. 9, 3-N-[[[4-(2'-morpholinoethoxycarbonyl)phenyl]methyl]valeramido]-i-propylbenzoic acid morpholide], in series [1], the “Blood Pressure” value is recorded as 207 mmHg. In series [2], the AUC at 24 h was found to be 50300 ng·h/mL. For the same compound, in the series on ICR female mice, the “Number of deaths/number of survivals” value is given as 0/5. Also, the inhibition at 100 µM in series [3] was 0%; in series [4] it was 13%. Also, the Average survival time in series [5] is 6.9 weeks.

With `CCCCCCC(=O)N(Cc1ccc(C(=O)O)cc1)c1cc(C(=O)N2CCN(CCC)CC2)ccc1C(C)C` [Compound No. 20, 3-N-[[(4-carboxyphenyl)methyl]n-heptanamido]-4-i-propylbenzoic acid 4'-n-propylpiperazide], in series [1], the “Blood Pressure” value is 209 mmHg. Besides, the AUC at 24 h in series [2] stood at 183000 ng·h/mL. Moreover, the “Number of deaths/number of survivals” value with ICR female mice is recorded as 0/5. In addition, the inhibition at 100 µM in series [3] and in series [4] was 0% each time. The Average survival time in series [5] amounted to 7.3 weeks.

Take `CCCCC(=O)N(Cc1ccc(C(=O)OCCN(C)C)cc1)c1cc(C(=O)N2CCOCC2)ccc1N(C)C` [Compound No. 1, 4-dimethylamino-3-N-[[[4-(2'-dimethylaminoethoxycarbonyl)phenyl]methyl]valeramido]benzoic acid morpholide]: the “Blood Pressure” value in series [1] is reported as 205 mmHg. In addition, the AUC at 24 h in series [2] was found to be 13900 ng·h/mL. In addition, the “Number of deaths/number of survivals” value with ICR female mice is on record as 0/5. Besides, the inhibition at 100 µM in series [3] is 16%; in series [4] it was 10%. The compound further came in with an Average survival time in series [5] of 7.5 weeks.

As for `CCCCC(=O)N(Cc1ccc(C(=O)O)cc1)c1cc(C(=O)N2CCN(C)CC2)ccc1C(C)C` [Compound No. 15, 3-[[(4-carboxyphenyl)methyl]valeramido]-4-i-propylbenzoic acid 4'-methylpiperazide], in series [1], the “Blood Pressure” value was found to be 200 mmHg. For the same compound, the AUC at 24 h in series [2] stood at 5670 ng·h/mL. In addition, the “Number of deaths/number of survivals” value with ICR female mice is reported as 0/5. The inhibition at 100 µM in series [3] and in series [4] was 0% in each case. In series [5], this compound yielded an Average survival time of 6.1 weeks.

As for `CCCCCCC(=O)N(Cc1ccc(C(=O)O)cc1)c1cc(C(=O)N2CCN(CCC)CC2)ccc1N(C)C` [Compound No. 12, 4-dimethylamino-3-N-[[(4-carboxyphenyl)methyl]n-heptanamido]benzoic acid 4'-n-propyl piperazide], in series [1], the “Blood Pressure” value was 202 mmHg. In addition, the AUC at 24 h in series [2] was found to be 32200 ng·h/mL. Also, the “Number of deaths/number of survivals” value with ICR female mice is reported as 0/5. Besides, the inhibition at 100 µM in series [3] and in series [4] was 0% in each case. Besides, the Average survival time in series [5] worked out at 7.0 weeks.

As to `CCCCC(=O)N(Cc1ccc(C(=O)OCCCN(C)C)cc1)c1cc(C(=O)N2CCOCC2)ccc1N(C)C` [Compound No. 2, 4-dimethylamino-3-N-[[[4-(3'-dimethylaminopropoxycarbonyl)phenyl]methyl]valeramido]benzoic acid morpholide], in series [1], the “Blood Pressure” value came out at 200 mmHg. The AUC at 24 h in series [2] is 10700 ng·h/mL. Besides, the “Number of deaths/number of survivals” value with ICR female mice is recorded as 0/5. Further, the inhibition at 100 µM in series [3] came to 0%; in series [4], 14%. Besides, the Average survival time in series [5] worked out at 6.9 weeks.

In the case of `CCCCC(=O)N(Cc1ccc(C(=O)OCCCN)cc1)c1cc(C(=O)N2CCOCC2)ccc1N(C)C` [Compound No. 3, 3-N-[[[4-(3'-aminopropoxycarbonyl)phenyl]methyl]valeramido]-4-dimethylaminobenzoic acid morpholide], the “Blood Pressure” value in series [1] is listed as 203 mmHg. The compound further had an AUC at 24 h in series [2] of 9530 ng·h/mL. In the series on ICR female mice, the “Number of deaths/number of survivals” value is 0/5. The inhibition at 100 µM in series [3] and in series [4] was 0% throughout. In addition, the Average survival time in series [5] was 6.9 weeks.

As to `CCCCCCC(=O)N(Cc1ccc(C(=O)O)cc1)c1cc(C(=O)N2CCN(C)CC2)ccc1C(C)C` [Compound No. 18, 3-N-[[(4-carboxyphenyl)methyl]n-heptanamido]-4-i-propylbenzoic acid 4'-methylpiperazide], the “Blood Pressure” value in series [1] amounted to 210 mmHg. Besides, in series [2], the AUC at 24 h was found to be 12800 ng·h/mL. Further, the “Number of deaths/number of survivals” value in the series with ICR female mice is given as 0/5. The inhibition at 100 µM in series [3] was found to be 9%; in series [4] it was 11%. Further, in series [5], the Average survival time was found to be 7.0 weeks.

`CCCCC(=O)N(Cc1ccc(C(=O)OCCN(CC)CC)cc1)c1cc(C(=O)N2CCOCC2)ccc1C(C)C` [Compound No. 8, 3-N-[[[4-(2'-diethylaminoethoxycarbonyl)phenyl]methyl]valeramido]-4-i-propylbenzoic acid morpholide]: the “Blood Pressure” value in series [1] is 203 mmHg. Also, the AUC at 24 h in series [2] came to 24600 ng·h/mL. Moreover, the “Number of deaths/number of survivals” value with ICR female mice is recorded as 0/5. Moreover, the inhibition at 100 µM in series [3] came out at 0%; in series [4] it was 11%. The Average survival time in series [5] was found to be 6.9 weeks.
